Measurements reported in ChEMBL document CHEMBL1145292, “Synthesis and activity of novel bile-acid conjugated glucocorticoid receptor antagonists” (Bioorg Med Chem Lett, 2006).

Legend:
Glucocorticoid receptor [1] = target: T1, Glucocorticoid receptor (Homo sapiens, UniProt P04150); assay: Binding affinity to human GR
T1 sequence (P04150 whole entry): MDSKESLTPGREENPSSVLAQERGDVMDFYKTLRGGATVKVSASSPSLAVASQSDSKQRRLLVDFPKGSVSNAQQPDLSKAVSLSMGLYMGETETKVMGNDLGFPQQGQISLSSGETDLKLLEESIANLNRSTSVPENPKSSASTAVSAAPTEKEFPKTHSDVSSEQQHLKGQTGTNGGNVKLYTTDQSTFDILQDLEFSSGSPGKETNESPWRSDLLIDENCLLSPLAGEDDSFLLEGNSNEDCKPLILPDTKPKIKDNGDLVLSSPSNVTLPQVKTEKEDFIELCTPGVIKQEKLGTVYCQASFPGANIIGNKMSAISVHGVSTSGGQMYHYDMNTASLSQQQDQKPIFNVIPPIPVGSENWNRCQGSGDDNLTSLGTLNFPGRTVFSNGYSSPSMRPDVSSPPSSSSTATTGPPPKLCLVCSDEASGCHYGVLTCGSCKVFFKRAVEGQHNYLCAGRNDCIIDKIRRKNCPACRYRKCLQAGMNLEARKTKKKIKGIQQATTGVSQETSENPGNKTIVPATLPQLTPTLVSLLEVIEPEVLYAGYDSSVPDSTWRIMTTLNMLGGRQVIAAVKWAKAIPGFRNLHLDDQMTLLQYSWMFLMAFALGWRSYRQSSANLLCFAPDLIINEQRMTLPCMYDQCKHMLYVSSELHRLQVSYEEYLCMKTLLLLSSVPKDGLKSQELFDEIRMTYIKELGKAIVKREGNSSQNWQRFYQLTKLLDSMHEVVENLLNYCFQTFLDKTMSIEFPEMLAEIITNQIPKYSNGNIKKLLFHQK

Glucocorticoid receptor [2] = target: T1, Glucocorticoid receptor; assay: Activity at GR expressed in CHO cells assessed as decrease in dexamethasone-stimulated alkaline phosphatase production by GRAF assay; format: cell-based
[3] = Stability in rat liver microsomes after 20 mins; format: ADME, Microsome; conditions: read-out: Stability
[4] = Protein binding in rat plasma; format: ADME, cell-free; conditions: read-out: PPB (converted)
[5] = Plasma concentration in Sprague-Dawley rat after 7 hrs at 100 mg/kg, po; format: ADME, organism-based; design: dose 100 mg/kg, route oral
Rattus norvegicus [6] = assay: Liver concentration in Sprague-Dawley rat after 7 hrs at 100 mg/kg, po; format: ADME, organism-based; design: dose 100 mg/kg, route oral; conditions: in vivo
Rattus norvegicus [7] = assay: Inhibition of prednisilone-stimulated TAT production in Sprague-Dawley rat at 100 mg/kg, po; format: functional
Rattus norvegicus [8] = assay: Inhibition of prednisilone-induced glycogen deposition in Sprague-Dawley rat at 100 mg/kg, po; format: functional
Rattus norvegicus [9] = assay: Inhibition of prednisilone-induced lymphopenia in Sprague-Dawley rat at 100 mg/kg, po; format: functional

Compound | IC50 (Glucocorticoid receptor [1]) | IC50 (Glucocorticoid receptor [2]) | remaining at 20 min [3] | fraction unbound [4] | concentration at 7 h [5] | Drug uptake (Rattus norvegicus [6]) | inhibition in vivo at 100 mg/kg (Rattus norvegicus [7]) | inhibition in vivo at 100 mg/kg (Rattus norvegicus [8]) | inhibition in vivo at 100 mg/kg (Rattus norvegicus [9])
CC#C[C@]1(O)CC[C@H]2[C@@H]3CCC4=CC(=O)CCC4=C3[C@@H](c3ccc(SC)cc3)C[C@@]21C | 0.6 nM | 1.8 nM |  |  |  |  |  |  | 
CC#C[C@]1(O)CC[C@H]2[C@@H]3CCC4=CC(=O)CCC4=C3[C@@H](c3ccc(N(C)CCO[C@H]4CC[C@@]5(C)[C@@H](C4)C[C@@H](O)[C@@H]4[C@@H]5C[C@H](O)[C@]5(C)[C@@H]([C@H](C)CCC(=O)O)CC[C@@H]45)cc3)C[C@@]21C | 1.2 nM | 10 nM | 98% | 0.041 | 4.5 µM | 26.5% | 72% | 86% | 9%
CC#C[C@]1(O)CC[C@H]2[C@@H]3CCC4=CC(=O)CCC4=C3[C@@H](c3ccc(-c4ccc(OC)cc4)cc3)C[C@@]21C | 0.7 nM | 4.2 nM | 96% |  |  |  |  |  | 
CC#C[C@]1(O)CC[C@H]2[C@@H]3CCC4=CC(=O)CCC4=C3[C@@H](c3ccc(OC)cc3C)C[C@@]21C | 9 nM | 32 nM |  |  |  |  |  |  | 
CC#C[C@]1(O)CC[C@H]2[C@@H]3CCC4=CC(=O)CCC4=C3[C@@H](c3c(F)cc(OC)cc3F)C[C@@]21C | 0.7 nM | 10.1 nM |  |  |  |  |  |  | 
CC#C[C@]1(O)CC[C@H]2[C@@H]3CCC4=CC(=O)CCC4=C3[C@@H](c3c(F)cc(OC)cc3OC)C[C@@]21C | 6.1 nM | 43 nM |  |  |  |  |  |  | 
CC#C[C@]1(O)CC[C@H]2[C@@H]3CCC4=CC(=O)CCC4=C3[C@@H](c3ccc(Oc4ccccc4)cc3)C[C@@]21C | 1.5 nM | 18.8 nM |  |  |  |  |  |  | 
CC#C[C@]1(O)CC[C@H]2[C@@H]3CCC4=CC(=O)CCC4=C3[C@@H](c3ccc(OC)c(C)c3)C[C@@]21C | 0.1 nM | 1.1 nM | 87% |  | 4.8 µM | 18.1% | 97% |  | 67%
C=CCOc1c(C)cc([C@H]2C[C@@]3(C)[C@@H](CC[C@@]3(O)C#CC)[C@@H]3CCC4=CC(=O)CCC4=C32)cc1Cl | 1.5 nM | 20.9 nM |  |  |  |  |  |  | 
CC#C[C@]1(O)CC[C@H]2[C@@H]3CCC4=CC(=O)CCC4=C3[C@@H](c3ccc(OCCO[C@H]4CC[C@@]5(C)[C@@H](C4)C[C@@H](O)[C@@H]4[C@@H]5C[C@H](O)[C@]5(C)[C@@H]([C@H](C)CCC(=O)O)CC[C@@H]45)c(C)c3)C[C@@]21C | 3.1 nM | 30.7 nM | 95% | 0.017 | 4.5 µM | 22.2% | 31% | 0% | 20%
CC#C[C@]1(O)CC[C@H]2[C@@H]3CCC4=CC(=O)CCC4=C3[C@@H](c3ccc(-c4ccc(OCCO[C@H]5CC[C@@]6(C)[C@@H](C5)C[C@@H](O)[C@@H]5[C@@H]6C[C@H](O)[C@]6(C)[C@@H]([C@H](C)CCC(=O)O)CC[C@@H]56)cc4)cc3)C[C@@]21C | 2.5 nM | 23.5 nM | 100% |  |  |  | 44% | 51% | 40%
CC#C[C@]1(O)CC[C@H]2[C@@H]3CCC4=CC(=O)CCC4=C3[C@@H](c3ccc(O)c(C)c3)C[C@@]21C | 4.5 nM | 28.6 nM |  |  |  |  |  |  | 

Second part, led by results:

IC50 (Glucocorticoid receptor [1]) | IC50 (Glucocorticoid receptor [2]) | remaining at 20 min [3] | Compound | fraction unbound [4] | concentration at 7 h [5] | Drug uptake (Rattus norvegicus [6]) | inhibition in vivo at 100 mg/kg (Rattus norvegicus [7]) | inhibition in vivo at 100 mg/kg (Rattus norvegicus [8]) | inhibition in vivo at 100 mg/kg (Rattus norvegicus [9])
0.4 nM | 2.8 nM |  | CC#C[C@]1(O)CC[C@H]2[C@@H]3CCC4=CC(=O)CCC4=C3[C@@H](c3cc(C)c(OC)c(C)c3)C[C@@]21C |  |  |  |  |  | 
60.7 nM |  |  | CC#C[C@]1(O)CC[C@H]2[C@@H]3CCC4=CC(=O)CCC4=C3[C@@H](c3cc(OC)c(OC)c(OC)c3)C[C@@]21C |  |  |  |  |  | 
0.9 nM | 7.6 nM |  | CC#C[C@]1(O)CC[C@H]2[C@@H]3CCC4=CC(=O)CCC4=C3[C@@H](c3ccc(OC)cc3)C[C@@]21C |  |  |  |  |  | 
3.2 nM | 15 nM |  | CC#C[C@]1(O)CC[C@H]2[C@@H]3CCC4=CC(=O)CCC4=C3[C@@H](c3cc(F)c(OC)cc3F)C[C@@]21C |  |  |  |  |  | 
481 nM |  |  | CC#C[C@]1(O)CC[C@H]2[C@@H]3CCC4=CC(=O)CCC4=C3[C@@H](c3c(OC)cc(OC)cc3OC)C[C@@]21C |  |  |  |  |  | 
4.9 nM | 200 nM |  | CC#C[C@]1(O)CC[C@H]2[C@@H]3CCC4=CC(=O)CCC4=C3[C@@H](c3cc(C)c(OCCO[C@H]4CC[C@@]5(C)[C@@H](C4)C[C@@H](O)[C@@H]4[C@@H]5C[C@H](O)[C@]5(C)[C@@H]([C@H](C)CCC(=O)O)CC[C@@H]45)c(C)c3)C[C@@]21C |  |  |  | 0% | 12% | 0%
0.4 nM | 4.7 nM |  | C=CCOc1ccc([C@H]2C[C@@]3(C)[C@@H](CC[C@@]3(O)C#CC)[C@@H]3CCC4=CC(=O)CCC4=C32)cc1Cl |  |  |  |  |  | 
 |  | 70% | CC#C[C@]1(O)CC[C@H]2[C@@H]3CCC4=CC(=O)CCC4=C3[C@@H](c3ccc(N(C)C)cc3)C[C@@]21C [MIFEPRISTONE] | 0.044 | 3.9 µM | 26.5% | 101% | 77% | 104%
